The source of these data is patent publication US20160258954A1, “METHOD OF DIAGNOSING AND TREATING EPSTEIN BARR VIRUS-BASED MYALGIC ENCEPHALOMYELITIS CHRONIC FATIGUE SYNDROME PATIENTS USING A SERUM ANTIBODY ASSAY” (CFS, LLC, priority 2015, published 2016).

One data set relates to SEID patients. Description: Reviews of antiviral therapy of EBV, CMV and HHV6 subset Group A SEID patients. Format: in vivo, human. As to conditions: cidofovir: unpublished studies. From the text:
These antiviral agents inhibit the respective DNA polymerases of the appropriate CMV, EBV, HHV6 herpesviruses.[8] […] Herpesvirus (EBV, CMV, HHV6) abortive lytic replication may be associated with SEID.

The subject of data set [1] is Group A ME/CFS patients (EBV, HCMV, HHV6 subsets). Description: Systematic review 2001-2007 of Group A ME/CFS patients given subset-directed antiviral treatment. It counts as in vivo, human. As to conditions: 79 of 106 group A patients, pooled valacyclovir (EBV subset) or valganciclovir (HCMV, HHV6 subsets); p<0.0001. From the text: A ME/CFS diagnostic panel was created utilizing initial Fukuda/Carruthers criteria and a systematic review of 142 ME/CFS patients. Two groups of ME/CFS patients were found. Group A patients had elevated serum IgG antibody titers to the herpes viruses Epstein-Barr virus (EBV), cytomegalovirus (HCMV) and Human Herpes virus 6 (HHV6) in single or multiple virus infection, but no other co-infections. Group B patients had similar elevated herpes virus antibody titers, plus serologic evidence of co-infections, tick-borne (“Borrelia burgdorferi”, “Anaplasma phagocytophilia”, “Babesia microti”); “Mycoplasma pneumoniae”; or adult rheumatoid fever. One hundred and six group A ME/CFS patients were followed from 2001-2007, and treated with subset directed valacyclovir EBV subset or valganciclovir (HCMV, HHV6 subsets). The data included over 7000 patient visits and 35,000 data entries.

For data set [2], the system named is EBV subset ME/CFS patients. Description: Energy Index Point Score (EIPS) of six EBV subset ME/CFS patients treated with valacyclovir for over 12 months. Format: in vivo, human. The source says: FIG. 2A is a table depicting the clinical results that establish EBV Abortive Lytic replication in the first of six EBV subset ME/CFS patients treated with valacyclovir for over 12 months;
As depicted in FIG. 1, the Energy Index (EI) point score (Copyright, Lerner AM and Deeter R G, 1999), is a simple and reliable metric that can be used to easily evaluate the functional capacity of the CFS patient at each patient-physician visit. *The CFS Energy Index point score can also be determined by questionnaire (US copyright, 1999 Lerner A. M., Deeter, R. J) reproduced with permission. **Kcal per day is calculated for a 70 kg CFS patient. The EI is measured on a scale of 1-10. Validation of the EI was done using two methods: 1.) 20 CFS patients and 22 healthy adults, matched for sex, age, place, and time; EI, CFS=3.6; EI, healthy adults=9.9, p=<0.0001; and 2.) 55 CFS patients evaluated at the same time by the EI and fatigue severity score, correlation 0.67, p=0.0066. Improvement to disappearance of CFS symptoms correlates with an increasing EI.
The validated energy index point score generally can be calculated for each CFS patient every 3 months at physician visits. […]
Demographics. […] The EIPS is a validated (FSS-9 item scale with high degree of internal consistency measured by Cronbach's alpha) is a Functional Activity Appraisal: energy Index Score Healthcare worker Appraisal.

The next data set has as its target EBV thymidine kinase (Epstein-Barr virus, UniProt P03177). The settings on record: after gastrointestinal absorption; cited from earlier work.
Another data set concerns CFS patients. Description: Cidofovir treatment of CFS patients. It counts as in vivo, human. The method, then: In general, to provide a therapeutically effective amount of the antiviral agent, a suitable effective dose will be in the range of 0.1 to 20 grams a day and preferably in the range between 0.3 to 15 grams per day, more preferably about 0.5 to 10 grams per day. The dosage of course, varies with the body weight of the patient up to a 70 kg individual, a dose of 4 grams per day may be appropriate (e.g., […] valacyclovir every six hours). The desired dose can be presented as two-four or more smaller doses administered at appropriate intervals throughout the day. These smaller doses may be administered in unit's dosage forms. For example, for valacyclovir and famciclovir, the dosage can be, for example 14 mg/kg every 6 hours (1.0 g every 6 hours for a 70 kg person). The dosage of valacyclovir and famciclovir can be, for example, up to or at least about 0.5-8 grams every 6 hours. The dosage of valgancyclovir can be, for example, from about 450-900 mg every 12 hours, or up to or at least about 100-2000 mg or more every 12 hours, depending on for example patient weight and tolerance. For maribavir the dosage can be, for example, for about 400-500 mg every 8 hours or for example up to or at least about 100-1000 or more every 8 hours. […] Accordingly, the dosage is adjusted to […] every two weeks. […]

For data set [3] the following is noted: Group A patients.

Sequence of EBV thymidine kinase (P03177 whole entry): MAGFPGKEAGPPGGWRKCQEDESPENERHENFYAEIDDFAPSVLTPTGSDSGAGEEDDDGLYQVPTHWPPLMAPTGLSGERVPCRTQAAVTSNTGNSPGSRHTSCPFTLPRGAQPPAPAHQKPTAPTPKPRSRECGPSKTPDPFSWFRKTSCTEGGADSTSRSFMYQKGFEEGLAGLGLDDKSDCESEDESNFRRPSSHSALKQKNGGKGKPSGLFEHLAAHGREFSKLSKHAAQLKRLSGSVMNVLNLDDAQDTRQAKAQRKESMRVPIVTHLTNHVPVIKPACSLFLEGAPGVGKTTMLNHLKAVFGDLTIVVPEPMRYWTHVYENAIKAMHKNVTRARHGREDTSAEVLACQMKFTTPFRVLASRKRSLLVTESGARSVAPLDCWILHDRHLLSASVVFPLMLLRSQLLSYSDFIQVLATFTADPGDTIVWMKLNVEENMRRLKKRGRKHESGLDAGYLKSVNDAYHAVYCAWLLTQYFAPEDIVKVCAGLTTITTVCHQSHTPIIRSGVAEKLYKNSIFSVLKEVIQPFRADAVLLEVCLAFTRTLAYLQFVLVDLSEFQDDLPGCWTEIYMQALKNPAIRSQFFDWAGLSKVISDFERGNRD

For `CC(=O)OCC(CCn1cnc2cnc(N)nc21)COC(C)=O` [famciclovir], the “therapeutic result in SEID patients” value with SEID patients is listed as “salutary results”.
With `CC(C)[C@H](N)C(=O)OCCOCn1cnc2c(=O)[nH]c(N)nc21` [valacyclovir], the “Group A patients recovered to resume normal life” value in data set [1] is 74.5%. In addition, the “therapeutic result in SEID patients” value with SEID patients is “salutary results”. For the same compound, in data set [2] (5 group A ME/CFS patients, one year later, initial EIPS 3.5-5.0 (one patient 6)), the “final EIPS values” is 7-8. Also, the “final EIPS value” in data set [2] (single group B ME/CFS patient (Borrelia burgdorferi co-infection), baseline 3.5) amounted to 5. Also, at EBV thymidine kinase, the “greater affinity for EBV thymidine kinase than for the host cellular enzyme” value is 200 ×.
As to `CC(C)[C@H](N)C(=O)OCC(CO)OCn1cnc2c(=O)nc(N)[nH]c21` (stereo partly drawn) [valganciclovir], the “Group A patients recovered to resume normal life” value in data set [1] is given as 74.5%. In addition, in the data set on SEID patients, the “therapeutic result in SEID patients” value is on record as “salutary results”.
For `Nc1ccn(C[C@@H](CO)OCP(=O)(O)O)c(=O)n1` [cidofovir], the “therapeutic result in SEID patients” value in the data set on SEID patients is given as “salutary results”. The “effectiveness relative to other antiviral agents” value in the data set with CFS patients (administered intravenously) is “two to three time more effective”. For the same compound, in the data set with CFS patients (patients over 50 and/or CFS over 10 years, reduced from over one year), the treatment time is on record as 6-9 months.
As to `Nc1nc2c(ncn2COCCO)c(=O)[nH]1` [acylocivir], in data set [3], the absorption result is “typically not absorbed”.
